Assay results as given in ChEMBL document CHEMBL5143665, “Discovery and preclinical evaluations of WX-0593, a novel ALK inhibitor targeting crizotinib-resistant mutations” (Bioorg Med Chem Lett, 2022).
pIC50: −log10 of the molar value. Active and inactive are the calls of the source. The calls are words filed in the database; no cut-off is given here.

Legend:
[1] = test system: BaF3; test: cells; details: Mus musculus
Description: Antiproliferative activity against mouse BaF3 cells harbouring ALK wild type assessed as reduction in cell viability by Celltitre-Glo luminescent assay

[2] = test system: BaF3; test: cells; details: Mus musculus; remark: listed apart in the source
Description: Antiproliferative activity against mouse BaF3 cells harbouring ALK C1156Y mutant assessed as reduction in cell viability by Celltitre-Glo luminescent assay

[3] = test system: BaF3; test: cells; details: Mus musculus; remark: listed apart in the source
Description: Antiproliferative activity against mouse BaF3 cells harbouring ALK L1196M mutant assessed as reduction in cell viability by Celltitre-Glo luminescent assay

[4] = test system: KARPAS-299; test: cells; details: Homo sapiens
Description: Antiproliferative activity against human KARPAS-299 cells harbouring wild type ALK assessed as reduction in cell viability by Celltitre-Glo luminescent assay

[5] = test system: BaF3; test: Antiproliferative activity against mouse BaF3 cells harbouring CD74-ROS1-D2033N mutant assessed as reduction in cell viability incubated for 72 hrs by Celltitre-Glo luminescent assay; format: functional, cell-based; details: BaF3, 72 h
[6] = AUC (0 to last) in Balb/c nude mouse at 5 mg/kg, po; format: ADME, organism-based; design: time 0 - last, dose 5 mg/kg, route po; details: in vivo
[7] = test system: BaF3; test: Antiproliferative activity against crizotinib resistant mouse BaF3 cells expressing EML4 fused ALK L1152R mutant assessed as reduction in cell viability incubated for 72 hrs by Celltitre-Glo luminescent assay; format: functional, cell-based; details: BaF3, 72 h
[8] = cells; details: Mus musculus, BaF3, 72 h
[9] = cells; details: Mus musculus, BaF3, 72 h; remark: listed apart in the source
[10] = cells; details: Mus musculus, Ba/F3 EML4-ALK-G1202R, 72 h
[11] = test system: NCI-H3122; test: Inhibition of ERK phosphorylation in human NCI-H3122 cells by Western blotting analysis; format: cell-based; details: DDE = dose-dependent effect
[12] = test system: BaF3; test: Antiproliferative activity against crizotinib resistant mouse BaF3 cells expressing EML4 fused ALK I1171T mutant assessed as reduction in cell viability incubated for 72 hrs by Celltitre-Glo luminescent assay; format: functional, cell-based; details: BaF3, 72 h
[13] = target: T1, ALK tyrosine kinase receptor (Homo sapiens, UniProt Q9UM73); test: Inhibition of ALK phosphorylation in human NCI-H3122 cells by Western blotting analysis; format: cell-based; details: DDE = dose-dependent effect
Target sequence in this assay (Q9UM73 19-1620 limits assumed): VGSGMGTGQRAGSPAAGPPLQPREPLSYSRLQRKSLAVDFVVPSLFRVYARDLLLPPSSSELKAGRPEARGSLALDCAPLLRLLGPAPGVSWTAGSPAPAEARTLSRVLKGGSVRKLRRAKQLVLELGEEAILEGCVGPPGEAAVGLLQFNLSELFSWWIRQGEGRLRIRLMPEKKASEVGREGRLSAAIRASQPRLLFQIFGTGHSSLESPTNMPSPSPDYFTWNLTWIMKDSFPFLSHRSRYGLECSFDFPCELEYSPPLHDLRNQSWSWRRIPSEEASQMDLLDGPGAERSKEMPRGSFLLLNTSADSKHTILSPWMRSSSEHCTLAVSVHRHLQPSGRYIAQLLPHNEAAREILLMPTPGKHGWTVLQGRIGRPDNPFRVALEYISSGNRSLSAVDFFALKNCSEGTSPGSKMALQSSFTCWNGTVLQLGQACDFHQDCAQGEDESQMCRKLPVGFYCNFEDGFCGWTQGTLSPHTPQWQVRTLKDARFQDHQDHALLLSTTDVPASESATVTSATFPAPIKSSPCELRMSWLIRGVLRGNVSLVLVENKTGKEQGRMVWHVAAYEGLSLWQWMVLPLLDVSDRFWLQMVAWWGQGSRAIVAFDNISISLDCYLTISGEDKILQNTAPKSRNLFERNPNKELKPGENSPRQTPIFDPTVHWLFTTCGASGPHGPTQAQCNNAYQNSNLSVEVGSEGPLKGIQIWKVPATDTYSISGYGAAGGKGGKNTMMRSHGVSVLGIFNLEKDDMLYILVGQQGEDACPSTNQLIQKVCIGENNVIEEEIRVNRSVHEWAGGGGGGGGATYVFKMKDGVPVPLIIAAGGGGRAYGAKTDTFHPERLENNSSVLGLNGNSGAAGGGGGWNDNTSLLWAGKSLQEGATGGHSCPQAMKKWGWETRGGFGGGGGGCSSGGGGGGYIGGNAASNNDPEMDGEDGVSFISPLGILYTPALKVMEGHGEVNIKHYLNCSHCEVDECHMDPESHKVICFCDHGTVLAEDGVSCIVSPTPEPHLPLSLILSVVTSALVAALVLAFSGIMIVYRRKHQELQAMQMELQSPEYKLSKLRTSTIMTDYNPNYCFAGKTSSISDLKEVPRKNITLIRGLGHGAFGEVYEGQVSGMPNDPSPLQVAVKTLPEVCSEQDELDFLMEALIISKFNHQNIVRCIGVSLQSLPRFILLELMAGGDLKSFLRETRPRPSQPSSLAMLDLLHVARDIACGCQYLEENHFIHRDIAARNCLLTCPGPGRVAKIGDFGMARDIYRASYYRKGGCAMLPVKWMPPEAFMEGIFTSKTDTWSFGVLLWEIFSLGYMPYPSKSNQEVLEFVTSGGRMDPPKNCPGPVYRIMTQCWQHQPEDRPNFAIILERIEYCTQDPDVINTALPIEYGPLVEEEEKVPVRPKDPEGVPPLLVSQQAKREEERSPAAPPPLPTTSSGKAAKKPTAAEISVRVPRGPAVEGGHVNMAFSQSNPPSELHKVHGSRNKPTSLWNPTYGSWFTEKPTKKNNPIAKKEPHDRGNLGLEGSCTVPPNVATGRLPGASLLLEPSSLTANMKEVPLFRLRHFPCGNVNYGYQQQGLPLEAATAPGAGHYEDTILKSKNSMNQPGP

[14] = Toxicity in nude mouse xenografted with crizotinib-resistant patient derived LU-01-0319R cells assessed as body weight change at 2.5 to 10 mg/kg, po dosed once daily for 21 days; format: organism-based; details: in vivo, 504 h, dose 2.5-10 mg/kg, time 21 day
[15] = Volume of distribution at steady state in Beagle dog at 1 mg/kg, iv; format: ADME, organism-based, Canis lupus familiaris; details: in vivo, read-out: Vdss
[16] = AUC (0 to last) in Sprague-Dawley rat at 8 mg/kg, po; format: ADME, organism-based; design: time 0 - last, dose 8 mg/kg, route po; details: in vivo
[17] = Cmax in Cynomolgus monkey at 2 mg/kg, po; format: ADME, organism-based, Macaca fascicularis; design: dose 2 mg/kg, route po; details: in vivo
[18] = cells; details: Mus musculus, BaF3, 72 h; remark: listed apart in the source
[19] = test system: BaF3; test: Antiproliferative activity against crizotinib resistant mouse BaF3 cells expressing EML4 fused ALK L1152P mutant assessed as reduction in cell viability incubated for 72 hrs by Celltitre-Glo luminescent assay; format: functional, cell-based; details: BaF3, 72 h
[20] = Oral bioavailability in Balb/c nude mouse at 5 mg/kg; format: ADME, organism-based; details: in vivo
[21] = test system: BaF3; test: Antiproliferative activity against crizotinib resistant mouse BaF3 cells expressing EML4 fused ALK V1180L mutant assessed as reduction in cell viability incubated for 72 hrs by Celltitre-Glo luminescent assay; format: functional, cell-based; details: BaF3, 72 h
[22] = test system: NCI-H3122; test: Inhibition of AKT phosphorylation in human NCI-H3122 cells at highest concentration by Western blotting analysis; format: cell-based
[23] = Clearance in Beagle dog at 1 mg/kg, iv; format: ADME, organism-based, Canis lupus familiaris; details: in vivo
[24] = test system: LU-01-0319R; test: Antitumor activity against crizotinib-resistant patient derived LU-01-0319R cells xenografted in nude mouse assessed as tumor regression at 10 mg/kg, po dosed once daily for 21 days; format: functional, organism-based; details: Homo sapiens, time 21.0 day
[25] = Cmax in Sprague-Dawley rat at 8 mg/kg, po; format: ADME, organism-based; design: dose 8 mg/kg, route po; details: in vivo
[26] = test system: LU-01-0319R; test: Antitumor activity against crizotinib-resistant patient derived LU-01-0319R cells xenografted in nude mouse at 2.5 to 10 mg/kg, po dosed once daily for 21 days; format: functional, organism-based; details: Homo sapiens, dose 2.5-10 mg/kg, time 21.0 day
[27] = test system: BaF3; test: Antiproliferative activity against crizotinib resistant mouse BaF3 cells expressing EML4 fused ALK F1174V mutant assessed as reduction in cell viability incubated for 72 hrs by Celltitre-Glo luminescent assay; format: functional, cell-based; details: BaF3, 72 h
[28] = test system: BaF3; test: Antiproliferative activity against crizotinib resistant mouse BaF3 cells expressing EML4 fused ALK I1171S mutant assessed as reduction in cell viability incubated for 72 hrs by Celltitre-Glo luminescent assay; format: functional, cell-based; details: BaF3, 72 h
[29] = test system: BaF3; test: Antiproliferative activity against mouse BaF3 cells harbouring CD74-ROS1-S1986Y mutant assessed as reduction in cell viability incubated for 72 hrs by Celltitre-Glo luminescent assay; format: functional, cell-based; details: BaF3, 72 h
[30] = Cmax in Balb/c nude mouse at 5 mg/kg, po; format: ADME, organism-based; design: dose 5 mg/kg, route po; details: in vivo
[31] = Clearance in Balb/c nude mouse at 1 mg/kg, iv; format: ADME, organism-based; details: in vivo
[32] = Toxicity in nude mouse xenografted with crizotinib-resistant patient derived LU-01-0319R cells assessed as tolerance at 2.5 to 10 mg/kg, po dosed once daily for 21 days; format: organism-based; details: in vivo, 504 h, dose 2.5-10 mg/kg, time 21 day
[33] = AUC (0 to last) in Cynomolgus monkey at 2 mg/kg, po; format: ADME, organism-based, Macaca fascicularis; design: time 0 - last, dose 2 mg/kg, route po; details: in vivo
[34] = Volume of distribution at steady state in Balb/c nude mouse at 1 mg/kg, iv; format: ADME, organism-based; details: in vivo, read-out: Vdss
[35] = test system: BaF3; test: Antiproliferative activity against mouse BaF3 cells harbouring SLC34A2-ROS1-L2026M mutant assessed as reduction in cell viability incubated for 72 hrs by Celltitre-Glo luminescent assay; format: functional, cell-based; details: BaF3, 72 h
[36] = test system: BaF3; test: Antiproliferative activity against mouse BaF3 cells harbouring CD74-ROS1-S1986F mutant assessed as reduction in cell viability incubated for 72 hrs by Celltitre-Glo luminescent assay; format: functional, cell-based; details: BaF3, 72 h
[37] = target: T2, Signal transducer and activator of transcription 5A (Homo sapiens) (UniProt P42229); test: Inhibition of STAT5 phosphorylation in human NCI-H3122 cells by Western blotting analysis; format: cell-based; details: DDE = dose-dependent effect
T2 sequence (whole entry): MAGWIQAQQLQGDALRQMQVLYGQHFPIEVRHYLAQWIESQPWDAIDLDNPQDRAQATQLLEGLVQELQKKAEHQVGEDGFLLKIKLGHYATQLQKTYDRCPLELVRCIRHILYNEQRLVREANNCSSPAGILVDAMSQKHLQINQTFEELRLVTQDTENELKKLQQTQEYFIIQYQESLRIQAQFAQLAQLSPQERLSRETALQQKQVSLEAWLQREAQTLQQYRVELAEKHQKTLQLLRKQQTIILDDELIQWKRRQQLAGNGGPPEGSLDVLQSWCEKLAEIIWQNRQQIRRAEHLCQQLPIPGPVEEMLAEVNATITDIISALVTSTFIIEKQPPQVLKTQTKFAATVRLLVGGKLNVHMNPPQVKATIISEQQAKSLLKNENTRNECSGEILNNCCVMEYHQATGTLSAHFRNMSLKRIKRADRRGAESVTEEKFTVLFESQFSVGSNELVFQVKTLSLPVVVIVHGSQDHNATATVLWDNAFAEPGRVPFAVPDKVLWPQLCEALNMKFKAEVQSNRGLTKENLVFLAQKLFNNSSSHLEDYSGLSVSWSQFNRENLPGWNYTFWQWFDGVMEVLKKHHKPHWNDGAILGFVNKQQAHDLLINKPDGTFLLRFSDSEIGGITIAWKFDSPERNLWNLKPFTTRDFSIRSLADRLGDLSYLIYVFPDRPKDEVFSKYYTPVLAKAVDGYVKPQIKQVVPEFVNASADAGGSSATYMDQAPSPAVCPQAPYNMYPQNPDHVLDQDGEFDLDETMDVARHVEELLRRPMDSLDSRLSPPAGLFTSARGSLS

[38] = test system: LU-01-0319; test: Antitumor activity against crizotinib-resistant patient derived LU-01-0319 cells xenografted in mouse assessed as tumor regression at 2.5 mg/kg, po; format: functional, organism-based; details: Homo sapiens
[39] = Half-life in Beagle dog at 1 mg/kg, iv; format: ADME, organism-based, Canis lupus familiaris; details: in vivo
[40] = Half-life in Balb/c nude mouse at 1 mg/kg, iv; format: ADME, organism-based; details: in vivo
[41] = cells; details: Mus musculus, Ba/F3 EML4-ALK, 72 h
[42] = target: T1, ALK tyrosine kinase receptor
Target sequence in this assay (Q9UM73 whole entry): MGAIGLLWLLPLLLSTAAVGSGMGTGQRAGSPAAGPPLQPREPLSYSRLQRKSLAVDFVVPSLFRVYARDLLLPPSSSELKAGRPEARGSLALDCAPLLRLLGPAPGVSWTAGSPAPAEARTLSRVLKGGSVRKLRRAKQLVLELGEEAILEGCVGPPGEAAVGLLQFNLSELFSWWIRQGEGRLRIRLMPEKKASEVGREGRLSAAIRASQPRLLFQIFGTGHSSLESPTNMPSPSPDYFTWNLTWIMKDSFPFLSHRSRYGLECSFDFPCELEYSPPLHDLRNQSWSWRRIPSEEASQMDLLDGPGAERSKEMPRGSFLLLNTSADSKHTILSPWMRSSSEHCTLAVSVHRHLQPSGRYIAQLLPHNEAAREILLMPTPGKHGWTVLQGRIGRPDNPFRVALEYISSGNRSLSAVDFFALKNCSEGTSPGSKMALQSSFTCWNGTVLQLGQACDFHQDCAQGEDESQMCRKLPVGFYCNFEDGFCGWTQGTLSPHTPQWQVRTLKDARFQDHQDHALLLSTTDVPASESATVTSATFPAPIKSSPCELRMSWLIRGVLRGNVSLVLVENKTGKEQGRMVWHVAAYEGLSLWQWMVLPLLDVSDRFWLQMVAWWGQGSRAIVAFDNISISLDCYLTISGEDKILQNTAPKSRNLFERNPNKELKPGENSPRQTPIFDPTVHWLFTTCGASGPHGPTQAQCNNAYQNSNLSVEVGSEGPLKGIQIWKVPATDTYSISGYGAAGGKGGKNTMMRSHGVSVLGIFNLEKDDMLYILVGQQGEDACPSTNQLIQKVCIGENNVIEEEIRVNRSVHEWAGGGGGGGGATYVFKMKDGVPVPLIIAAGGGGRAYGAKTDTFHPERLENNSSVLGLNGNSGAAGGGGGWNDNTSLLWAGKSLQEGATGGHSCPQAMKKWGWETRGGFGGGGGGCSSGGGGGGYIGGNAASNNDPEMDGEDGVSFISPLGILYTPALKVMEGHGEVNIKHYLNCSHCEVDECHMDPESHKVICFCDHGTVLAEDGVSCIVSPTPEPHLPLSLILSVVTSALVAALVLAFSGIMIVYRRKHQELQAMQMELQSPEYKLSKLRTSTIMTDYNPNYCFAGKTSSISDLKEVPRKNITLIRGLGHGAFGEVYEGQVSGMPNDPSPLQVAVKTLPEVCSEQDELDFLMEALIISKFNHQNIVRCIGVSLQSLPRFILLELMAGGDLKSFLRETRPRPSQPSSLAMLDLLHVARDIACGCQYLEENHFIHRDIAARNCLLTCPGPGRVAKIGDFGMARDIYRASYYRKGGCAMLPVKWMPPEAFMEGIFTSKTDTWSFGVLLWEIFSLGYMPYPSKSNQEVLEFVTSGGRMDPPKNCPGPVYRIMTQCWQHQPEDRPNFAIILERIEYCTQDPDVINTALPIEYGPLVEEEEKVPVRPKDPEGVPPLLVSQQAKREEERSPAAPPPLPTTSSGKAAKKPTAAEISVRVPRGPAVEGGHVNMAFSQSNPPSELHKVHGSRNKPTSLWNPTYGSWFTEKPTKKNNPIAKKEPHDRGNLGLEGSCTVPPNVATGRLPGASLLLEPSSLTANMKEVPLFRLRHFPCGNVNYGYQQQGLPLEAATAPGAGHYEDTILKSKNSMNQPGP

[43] = test system: BaF3; test: Antiproliferative activity against crizotinib resistant mouse BaF3 cells expressing EML4 fused ALK T1151Tins mutant assessed as reduction in cell viability incubated for 72 hrs by Celltitre-Glo luminescent assay; format: functional, cell-based; details: BaF3, 72 h, read-out: IC50
[44] = target: ALK tyrosine kinase receptor (Homo sapiens, UniProt Q9UM73, C1156Y)
ALK tyrosine kinase receptor (Homo sapiens, UniProt Q9UM73, C1156Y), sequence (Q9UM73 19-1620 C1156Y limits assumed): as the sequence (Q9UM73 19-1620 limits assumed) above, with C1138Y counted along it

[45] = test system: BaF3; test: Antiproliferative activity against crizotinib resistant mouse BaF3 cells expressing EML4 fused ALK I1171N mutant assessed as reduction in cell viability incubated for 72 hrs by Celltitre-Glo luminescent assay; format: functional, cell-based; details: BaF3, 72 h, read-out: IC50
[46] = test system: BaF3; test: Antiproliferative activity against crizotinib resistant mouse BaF3 cells expressing EML4 fused ALK F1174C mutant assessed as reduction in cell viability incubated for 72 hrs by Celltitre-Glo luminescent assay; format: functional, cell-based; details: BaF3, 72 h

COc1cc(N2CCC3(CCN(C)CC3)CC2)c(Cl)cc1Nc1ncc(Cl)c(Nc2ccccc2P(C)(C)=O)n1
pIC50 [1]: 8.00 | pIC50 [2]: 7.82 | pIC50 [3]: 7.92 | pIC50 [4]: 7.06

COc1cc(N2CCC3(CCN(C)CC3)CC2)ccc1Nc1ncc(Cl)c(Nc2ccccc2P(C)(C)=O)n1 [IRUPLINALKIB]
pIC50 [5]: 7.48 | pIC50 [1]: 7.89 | AUC(0-t) [6]: 2450 ng·h/mL | pIC50 [7]: 8.40 | pIC50 [2]: 7.68 | pIC50 [8]: 7.44 | pIC50 [9]: 7.44 | pIC50 [10]: 7.02 | inhibition [11]: Dde | pIC50 [12]: 7.96 | inhibition [13]: Dde | Activity [14]: Non-Toxic | Vd [15]: 4.6 L/kg | AUC(0-t) [16]: 4000 ng·h/mL | Cmax [17]: 92.2 ng/mL | pIC50 [18]: 7.96 | pIC50 [19]: 9.00 | bioavailability [20]: 66.2% | pIC50 [21]: 8.10 | inhibition [22]: Active | clearance [23]: 8.6 mL/min/kg | Activity [24]: Active | Cmax [25]: 499 ng/mL | Activity [26]: Active | pIC50 [27]: 7.66 | pIC50 [28]: 7.49 | pIC50 [29]: 7.82 | Cmax [30]: 741 ng/mL | clearance [31]: 22.4 mL/min/kg | pIC50 [3]: 7.62 | Activity [32]: Non-Toxic | AUC(0-t) [33]: 598 ng·h/mL | Vd [34]: 2.33 L/kg | pIC50 [35]: 7.92 | pIC50 [36]: 7.66 | pIC50 [4]: 7.84 | inhibition [37]: Dde | Activity [38]: Active | half-life [39]: 6.47 h | half-life [40]: 1.38 h | pIC50 [41]: 7.68 | pIC50 [42]: 8.80 | pIC50 [43]: 7.92 | pIC50 [44]: 8.74 | pIC50 [45]: 7.77 | pIC50 [46]: 7.44

COc1cc(N2CCC3(CCN(C)CC3)CC2)ccc1Nc1ncc(Cl)c(Nc2ccc(F)cc2P(C)(C)=O)n1
pIC50 [1]: 8.10 | pIC50 [2]: 7.77 | pIC50 [3]: 7.74 | pIC50 [4]: 7.70
